Results from patent US7282608B2, “Inhibitors of histone deacetylase” (Methylgene, Inc., priority 2002, dated 2007).
Where two headings read alike, the source gives them in different places.

Columns and labels:
[1] = molecular target: T1, cloned recombinant human HDAC-1 (Homo sapiens, UniProt Q13547); test: Human HDAC-1 Assay 1: [3H]-acetylated histone deacetylase assay; assay type: biochemical; conditions: Assay 1, unbracketed data; [3H]-acetylated histone substrate, 10 min at 37° C.
T1 construct: made in house; host or cells: Baculovirus insect cell expression system
T1 sequence (Q13547 whole entry): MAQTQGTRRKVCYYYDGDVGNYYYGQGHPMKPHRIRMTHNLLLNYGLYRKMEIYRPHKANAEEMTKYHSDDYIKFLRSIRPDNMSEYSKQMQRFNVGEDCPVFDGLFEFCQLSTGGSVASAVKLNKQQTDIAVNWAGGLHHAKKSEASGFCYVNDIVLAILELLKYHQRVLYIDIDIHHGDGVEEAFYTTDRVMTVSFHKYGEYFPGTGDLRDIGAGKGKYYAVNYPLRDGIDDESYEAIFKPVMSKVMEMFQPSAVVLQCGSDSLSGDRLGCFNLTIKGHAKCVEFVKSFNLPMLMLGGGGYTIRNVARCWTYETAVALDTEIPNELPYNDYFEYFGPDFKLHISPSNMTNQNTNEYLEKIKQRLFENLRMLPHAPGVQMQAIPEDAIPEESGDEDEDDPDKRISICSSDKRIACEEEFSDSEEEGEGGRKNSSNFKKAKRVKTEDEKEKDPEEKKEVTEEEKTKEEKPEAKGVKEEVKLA
Method: HDAC inhibitors were screened against a cloned recombinant human HDAC-1 enzyme expressed and purified from a Baculovirus insect cell expression system. For deacetylase assays, 20,000 cpm of the [^3H]-metabolically labeled acetylated histone substrate (M. Yoshida et al., J. Biol. Chem. 265(28): 17174–17179 (1990)) was incubated with 30 μg of the cloned recombinant hHDAC-1 for 10 minutes at 37° C. The reaction was stopped by adding acetic acid (0.04 M, final concentration) and HCl (250 mM, final concentration). […] For inhibition studies, the enzyme was preincubated with compounds at 4° C. for 30 minutes prior to initiation of the enzymatic assay. IC50 values for HDAC enzyme inhibitors were determined by performing dose response curves with individual compounds and determining the concentration of inhibitor producing fifty percent of the maximal inhibition. IC50 values for representative compounds assayed using this procedure are presented in the third column of Tables 7–10 (excepting bracketed data).

HCT116 cells = test: MTT assay; assay type: cell-based; conditions: Homo sapiens, HCT-116, 72 hours
Method: HCT116 cells (2000/well) were plated into 96-well tissue culture plates one day before compound treatment. Compounds at various concentrations were added to the cells. The cells were incubated for 72 hours at 37° C. in 5% CO2 incubator. MTT (3-[4,5-dimethylthiazol-2-yl]-2,5 diphenyl tetrazolium bromide, Sigma) was added at a final concentration of 0.5 mg/ml and incubated with the cells for 4 hours before one volume of solubilization buffer (50% N,N-dimethylformamide, 20% SDS, pH 4.7) was added onto the cultured cells. After overnight incubation, solubilized dye was quantified by colorimetric reading at […] using a reference at […] using an MR700 plate reader (Dynatech Laboratories Inc.). OD values were converted to cell numbers according to a standard growth curve of the relevant cell line. The concentration which reduces cell numbers to 50% of that of solvent treated cells is determined as MTT IC50. IC50 values for representative compounds are presented in the fourth column of Tables 7–10.

[2] = test system: acetylated histone H-4 in T24 human bladder cancer cells; test: Histone H4 acetylation in whole cells by immunoblots; assay type: cell-based; conditions: 16 h, read-out: H4 Ac (T24) EC50
Method: T24 human bladder cancer cells growing in culture were incubated with HDAC inhibitors for 16 h. Histones were extracted from the cells after the culture period as described by M. Yoshida et al. (J. Biol. Chem. 265(28): 17174–17179 (1990)). […] of total histone protein was loaded onto SDS/PAGE and transferred to nitrocellulose membranes. Membranes were probed with polyclonal antibodies specific for acetylated histone H-4 (Upstate Biotech Inc.), followed by horse radish peroxidase conjugated secondary antibodies (Sigma). Enhanced Chemiluminescence (ECL) (Amersham) detection was performed using Kodak films (Eastman Kodak). Acetylated H-4 signal was quantified by densitometry. Representative data are presented in the fifth column of Table 7–10. Data are presented as the concentration effective for […] the acetylated H-4 signal by 50% (EC50).

IC50 [1] [nM]	IC50 (HCT116 cells) [nM]	EC50 ([2]; immunoblot densitometry) [nM]	EC50 ([2]; code 9999 of the footnote) [nM]	Compound
4000	100	3000	–	COc1cc(NC/C=C/c2ccc(C(=O)Nc3ccccc3N)cc2)cc(OC)c1OC [XVb, N-(2-Amino-phenyl)-4[3-(3,4,5-trimethoxy-phenylamino)-propenyl]-benzamide]
3000	1000	2000	–	CC(=O)c1cc2c(cc1NC/C=C/c1ccc(C(=O)Nc3ccccc3N)cc1)OCO2 [XVf]
3000	400	–	> 25000	Nc1ccccc1NC(=O)c1ccc(C(=O)/C=C/c2c(Cl)cccc2Cl)cc1 [Ic, N-(2-Amino-phenyl)-4-[3-(2,6-dichloro-phenyl)-acryloyl]benzamide]
2000	900	5000	–	Nc1ccccc1NC(=O)c1ccc(C(=O)/C=C/c2cccnc2)cc1 [Ib, N-(2-Amino-phenyl)-4-(3-pyridin-3-yl-acryloyl)-benzamide]
13000	2000	–	–	Nc1ccccc1NC(=O)c1ccc(/C=C/C(=O)N[C@H]2c3ccccc3C[C@H]2O)cc1 [Vp, (−)-(1S,2R)-N-(2-Amino-phenyl)-4-[2-(2-hydroxy-indan-1-ylcarbamoyl)-vinyl]-benzamide]
4000	1000	2000	–	Nc1ccccc1NC(=O)c1ccc(/C=C/CN2CCN(Cc3ccccc3)CC2)cc1 [XXXb, N-(2-Amino-phenyl)-4-[3-(4-benzyl-piperazin-1-yl)-propenyl]-benzamide]
5000	1000	5000	–	Nc1ccccc1NC(=O)c1ccc(C(=O)/C=C/c2ccc(C(F)(F)F)cc2)cc1 [Ih, N-(2-Amino-phenyl)-4-[3-(4-trifluoromethyl-phenyl)-acryloyl]-benzamide]
3000	1000	10000	–	Nc1ccccc1NC(=O)c1ccc(/C=C/C(=O)NC2Cc3ccccc3C2)cc1 [Vh, N-(2-Amino-phenyl)-4-[2-(indan-2-ylcarbamoyl)-vinyl]-benzamide]
1000	400	1000	–	Nc1ccccc1NC(=O)c1ccc(/C=C/C(=O)NCCOc2ccccc2)cc1 [Vd, N-(2-Amino-phenyl)-4-[2-(2-phenoxy-ethylcarbamoyl)-vinyl]-benzamide]
6000	9000	–	–	Nc1ccccc1NC(=O)c1ccc(C(=O)/C=C/c2ccc(Cl)cc2)cc1 [Ie, N-(2-Amino-phenyl)-4-[3-(4-chloro-phenyl)-acryloyl]-benzamide]
8000	100	3000	–	Nc1ccccc1NC(=O)c1ccc(/C=C/C(=O)c2ccccc2[N+](=O)[O-])cc1 [XXIVb, N-(2-Amino-phenyl)-4-[3-(2-nitro-phenyl)-3-oxo-propenyl]-benzamide]
12000	5000	–	–	Cc1ccc(S(=O)(=O)NC/C=C/c2ccc(C(=O)Nc3ccccc3N)cc2)cc1 [XVg, N-(2-Amino-phenyl)-4-[3-(4-tolyl-sulfonylamino)-propenyl]-benzamide]
1000	300	1000	–	Nc1ccccc1NC(=O)c1ccc(/C=C/C(=O)NCCc2c[nH]c3ccccc23)cc1 [Vj, N-(2-Amino-phenyl)-4-{2-[2-(1H-indol-3-yl)-ethylcarbamoyl]-vinyl}-benzamide]
5000	300	1000	–	Nc1ccccc1NC(=O)c1ccc(/C=C/C(=O)NCCc2cccnc2)cc1 [Vf, N-(2-Amino-phenyl)-4-[2-(2-pyridin-3-yl-ethylcarbamoyl)-vinyl]-benzamide]
2000	1000	1000	–	COc1ccc(NC/C=C/c2ccc(C(=O)Nc3ccccc3N)cc2)cc1OC1CCCC1 [XVa, N-(2-Amino-phenyl)-4-[3-(3-cyclopentyloxy-4-methoxy-phenylamino)-propenyl]-benzamide]
4000	300	< 5000	–	COc1cccc(C(=O)/C=C/c2ccc(C(=O)Nc3ccccc3N)cc2)c1 [XXIVd, N-(2-Amino-phenyl)-4-[3-(3-methoxy-phenyl)-3-oxo-propenyl]-benzamide]

IC50 [1] [nM]	IC50 (HCT116 cells) [nM]	EC50 ([2]; immunoblot densitometry) [nM]	EC50 ([2]; code 9999 of the footnote) [nM]	Compound
10000	300	3000	–	Nc1ccccc1NC(=O)c1ccc(/C=C/C(=O)c2ccc(N3CCOCC3)cc2)cc1 [XXIVf, N-(2-Amino-phenyl)-4-[3-(4-morpholin-4-yl-phenyl)-3-oxo-propenyl]-benzamide]
4000	5000	–	–	COc1cc(OC)c(/C=C/C(=O)c2ccc(C(=O)Nc3ccccc3N)cc2)c(OC)c1 [If, N-(2-Amino-phenyl)-4-[3-(2,4,6-trimethoxy-phenyl)-acryloyl]-benzamide]
11000	6000	–	–	Nc1ccccc1NC(=O)c1ccc(/C=C/C(=O)N2CCN(c3ccccn3)CC2)cc1 [Vm, N-(2-Amino-phenyl)-4-[3-oxo-3-(4-pyridin-2-yl-piperazin-1-yl)-propenyl]-benzamide]
13000	600	5000	–	COc1ccc(C(=O)/C=C/c2ccc(C(=O)Nc3ccccc3N)cc2)cc1 [XXIVc, N-(2-Amino-phenyl)-4-[3-(4-methoxy-phenyl)-3-oxo-propenyl]-benzamide]
2000	600	2000	–	Nc1ccccc1NC(=O)c1ccc(CCC(=O)c2ccccc2)cc1 [XXVIIa, N-(2-Amino-phenyl)-4-(3-oxo-3-phenyl-propyl)-benzamide]
3000	1000	3000	–	Nc1ccccc1NC(=O)c1ccc(C(=O)/C=C/c2cc(F)ccc2F)cc1 [Ii, N-(2-Amino-phenyl)-4-[3-(2,5-difluoro-phenyl)-acryloyl]-benzamide]
7000	3000	–	–	N#CCCN(Cc1cccnc1)C(=O)/C=C/c1ccc(C(=O)Nc2ccccc2N)cc1 [Vn, N-(2-Amino-phenyl)-4-{2-[(2-cyano-ethyl)-pyridin-3-ylmethyl-carbamoyl]-vinyl}-benzamide]
5000	3000	–	–	COc1cc(NC(=O)/C=C/c2ccc(C(=O)Nc3ccccc3N)cc2)cc(OC)c1OC [Va, N-(2-Amino-phenyl)-4-[2-(3,4,5-trimethoxy-phenylcarbamoyl)-vinyl]-benzamide]
15000	4000	–	–	Nc1ccccc1NC(=O)c1ccc(/C=C/C(=O)N(Cc2cccnc2)Cc2cccnc2)cc1 [Vo, N-(2-Amino-phenyl)-4-[2-(bis-pyridin-3-ylmethyl-carbamoyl)-vinyl]-benzamide]
10000	5000	–	–	Nc1ccccc1NC(=O)c1ccc(/C=C/C(=O)OCc2cccnc2)cc1 [Vg, Pyridin-3-ylmethyl 3-[4-(2-amino-phenylcarbamoyl)-phenyl]-acrylic ester]
3000	3000	–	–	CC(C)(C)OC(=O)N(C/C=C/c1ccc(C(=O)Nc2ccccc2N)cc1)Cc1cccnc1 [XXIIh, t-Butyl {3-[4-(2-amino-phenylcarbamoyl)-phenyl]-ally}-pyridin-3-ylmethyl-carbamate]
13000	2000	–	–	COc1ccc(C2CCN(C(=O)/C=C/c3ccc(C(=O)Nc4ccccc4N)cc3)CC2)cc1OC [Vk, N-(2-Amino-phenyl)-4-{3-[4-(3,4-dimethoxy-phenyl)-piperidin-1-yl]-3-oxo-propenyl}-benzamide]
12000	4000	–	–	Nc1ccccc1NC(=O)c1ccc(/C=C/C(=O)N2CCCC2c2cccnc2)cc1 (racemic) [Vl, (rac)-N-(2-Amino-phenyl)-4-[3-oxo-3-(2-pyridin-3-yl-pyrrolidin-1-yl)-propenyl]-benzamide]
2000	600	–	–	Nc1ccccc1NC(=O)c1ccc(CCCc2ccccc2)cc1 [XXIXa, N-(2-Amino-phenyl)-4-(3-phenyl-propyl)-benzamide]
20000	6000	–	–	Nc1ccccc1NC(=O)c1ccc(/C=C/C(=O)N2CCOCC2)cc1 [Ve, N-(2-Amino-phenyl)-4-(3-morpholin-4-yl-3-oxo-propenyl)-benzamide]
5000	1000	–	–	Nc1ccccc1NC(=O)c1ccc(C(=O)/C=C/c2ccc(Cl)c(Cl)c2)cc1 [Ia, N-(2-Amino-phenyl)-4-[3-(3,4-dichloro-phenyl)-acryloyl]-benzamide]
